Test results: patent US8119660B2, “Small-molecule inhibitors of the androgen receptor” (The Regents of the University of California, priority 2007, dated 2012)
Positions count from the first letter of the chain named. “Also recorded” adds a separate entry of the source.

How the values were obtained:
prostate glands of mice = test: Prostate weight in treated male mice; format: in vivo; settings: 5 times per week for four weeks, BiC 100 mg/kg PO, PP 1 mg/kg IP, or the combination
Experimental: FIG. 7. […] As a positive control, nine mice were treated with castration for four weeks. Prostate glands were harvested and wet weights determined. […] Error bars represent the standard error of the mean (S.E.M.).
Animals were treated 5 times per week for four weeks. At the end of the study period, animals were sacrificed and prostate tissue weighed. After weighing, the tissue was divided in half for pathological and genetic studies. […] (FIG. 7).

[1] = test system: endogenous AR-regulated gene expression, LAPC4 cells; test: qRT-PCR of androgen-responsive genes in LAPC4 cells; format: cell-based, human; settings: No DHT = 1, 3 nM DHT alone or with 1 uM BIC, 100 nM PP or 100 nM HH
Experimental: (§1) LAPC4 and LNCaP cells were grown in the presence or absence of 3 nM DHT in charcoal-stripped media, with or without the inhibitors. RNA was harvested using an RNAeasy kit (Qiagen) and reverse transcribed (MMLV-RT, Invitrogen). Real-time PCR was carried out on a 7300 Real Time PCR System (Applied Biosystems) using SYBR green as the detecting dye and Rox as the reference dye. The androgen responsive genes kalikrein 3, or PSA (KLK3) [Cleutjens, K. B., et al., Two androgen response regions cooperate in steroid hormone regulated activity of the prostate-specific antigen promoter. J Biol Chem, 1996. 271(11): p. 6379-88; Nelson, P. S., et al., The program of androgen-responsive genes in neoplastic prostate epithelium. Proc Natl Acad Sci USA, 2002. 99(18): p. 11890-5), metalloproteinase 16 (MMP16) (Nelson, P. S., et al., The program of androgen-responsive genes in neoplastic prostate epithelium. Proc Natl Acad Sci USA, 2002. 99(18): p. 11890-5), transmembrane protease serine 2 (TMPRSS2) (Nelson, P. S., et al., The program of androgen-responsive genes in neoplastic prostate epithelium. Proc Natl Acad Sci USA, 2002. 99(18): p. 11890-5; […] Vaarala, M. H., et al., Expression of transmembrane serine protease TMPRSS2 in mouse and human tissues. J Pathol, 2001. 193(1): p. 134-40), FK506-binding immunophilin 51 (FKBP51) (Nelson, P. S., et al., The program of androgen-responsive genes in neoplastic prostate epithelium. Proc Natl Acad Sci USA, 2002. 99(18): p. 11890-5; Amler, L. C., et al., Dysregulated expression of androgen-responsive and nonresponsive genes in the androgen-independent prostate cancer xenograft model CWR22-R1. Cancer Res, 2000. 60(21): p. 6134-41; Velasco, A. M., et al., Identification and validation of novel androgen-regulated genes in prostate cancer. Endocrinology, 2004. 145(8): p. 3913-24; Magee, J. A., et al., Direct, androgen receptor-mediated regulation of the FKBP5 gene via a distal enhancer element. Endocrinology, 2006. 147(1): p. 590-8), G-protein coupled receptor RDC1 homolog, or chemokine orphan receptor 1 (RDC-1) (Nelson, P. S., et al., The program of androgen-responsive genes in neoplastic prostate epithelium. Proc Natl Acad Sci USA, 2002. 99(18): p. 11890-5), NK homeobox family member 3 (Nk×3.1) (Nelson, P. S., et al., The program of androgen-responsive genes in neoplastic prostate epithelium. Proc Natl Acad Sci USA, 2002. 99(18): p. 11890-5; Bieberich, C. J., et al., Prostate-specific and androgen-dependent expression of a novel homeobox gene. J Biol Chem, 1996. 271(50): p. 31779-82; […]) were all normalized to the transcription of the housekeeping ribosomal gene (RPL19). All samples were done in triplicate and separately normalized.

[2] = test system: endogenous AR-regulated gene expression, LNCaP cells; test: qRT-PCR of androgen-responsive genes in LNCaP cells; format: cell-based, human; settings: No DHT = 1, 3 nM DHT alone or with 1 uM BIC, 100 nM PP or 100 nM HH
Experimental: as §1

[3] = target: T1, endogenous wild-type AR, LAPC4 cells (Homo sapiens, UniProt P10275); test: PSA-luciferase reporter assay in LAPC4 cells with DHT; format: cell-based; settings: 3 nM DHT
T1 construct: that each express endogenous AR; endogenous in cells; host or cells: LAPC4
T1 sequence (P10275 1-920): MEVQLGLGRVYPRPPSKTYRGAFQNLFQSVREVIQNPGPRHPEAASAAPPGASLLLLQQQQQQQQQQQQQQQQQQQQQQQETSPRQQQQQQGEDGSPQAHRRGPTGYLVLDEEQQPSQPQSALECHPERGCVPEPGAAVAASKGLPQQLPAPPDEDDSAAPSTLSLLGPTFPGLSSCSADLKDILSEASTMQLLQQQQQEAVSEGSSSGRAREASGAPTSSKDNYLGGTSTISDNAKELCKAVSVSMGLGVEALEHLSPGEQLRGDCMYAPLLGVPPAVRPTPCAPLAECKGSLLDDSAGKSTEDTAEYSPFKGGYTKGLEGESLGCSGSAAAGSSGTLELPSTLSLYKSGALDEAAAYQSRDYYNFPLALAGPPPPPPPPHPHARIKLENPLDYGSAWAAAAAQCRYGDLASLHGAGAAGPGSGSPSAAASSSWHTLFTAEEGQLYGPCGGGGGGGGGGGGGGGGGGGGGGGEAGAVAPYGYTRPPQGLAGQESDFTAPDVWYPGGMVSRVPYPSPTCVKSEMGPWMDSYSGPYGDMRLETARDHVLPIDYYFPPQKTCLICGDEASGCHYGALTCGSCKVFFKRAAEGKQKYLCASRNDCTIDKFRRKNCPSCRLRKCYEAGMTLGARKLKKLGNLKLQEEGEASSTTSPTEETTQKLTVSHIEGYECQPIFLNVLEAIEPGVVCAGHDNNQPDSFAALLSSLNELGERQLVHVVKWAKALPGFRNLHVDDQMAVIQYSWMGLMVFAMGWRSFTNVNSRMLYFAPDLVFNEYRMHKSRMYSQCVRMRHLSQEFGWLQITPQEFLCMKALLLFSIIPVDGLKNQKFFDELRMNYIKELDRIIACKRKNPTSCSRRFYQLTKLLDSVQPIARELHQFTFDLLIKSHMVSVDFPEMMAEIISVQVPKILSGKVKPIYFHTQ
Experimental: (§2) Cells were transfected with two reporter plasmids, a PSA-luciferase construct (androgen responsive), and an SV40-renilla luciferase construct as an internal control. The following day, the cells were split and drugs added in the presence of 3 nM DHT. Luciferase production was measured the following day (Dual luciferase assay kit, Promega).
(§3) Synergism can be defined as a combination index of less than one, using the non-exclusive assumption described by Chou et al. (Chou, T. C. and P. Talalay, Quantitative analysis of dose-effect relationships: the combined effects of multiple drugs or enzyme inhibitors. Adv Enzyme Regul, 1984. 22: p. 27-55).

[4] = target: T2, endogenous AR with a mutation (T877A), LNCaP cells (Homo sapiens, UniProt P10275, T878A); test: PSA-luciferase reporter assay in LNCaP cells with DHT; format: cell-based; settings: for IC50: LNCaP cells, 3 nM DHT
T2 construct: that each express endogenous AR; endogenous in cells; host or cells: LNCaP
T2 sequence (P10275 1-920 T878A): T1 sequence (P10275 1-920) with T878A
Experimental: as §2, §3

HEK293 cells = test: Cell proliferation (DNA content, DAPI), HEK293 control; format: cell-based; settings: HEK293, seven days; PP 100 nM, HH 100 nM, BiC 1 μM
Source text: (§4) LN-AR cells were created by retroviral infection of a high-expressing AR vector into LNCaP cells, and proliferate independent of androgen in cell culture, unlike their parental line (Chen, C. D., et al., Molecular determinants of resistance to antiandrogen therapy. Nat Med, 2004. 10(1): p. 33-9). HEK293 cells were used as a control. Cells were transferred to charcoal-stripped media two days before they were split and plated in quadruplicate at a density of approximately 20,000 cells/well in 48-well plates. […] Media were changed every day, using a single preparation to ensure consistent compound concentrations. Proliferation was determined by measuring the DNA content of the cells in each well. Each day, the cells in four wells were fixed in 100% cold methanol, followed by staining for 5 min at RT with 0.2 ng/mL 4′,6-diamidino-2-phenylindole (DAPI) in PBS. The cells were washed once in PBS, then read on a fluorescence plate reader using 365/439 excitation/emission wavelengths. LAPC4 and LNCaP cells proliferated to a much greater degree in the presence of DHT, while LN-AR cells proliferated in the presence and absence of DHT.

LAPC4 cells = test: Cell proliferation (DNA content, DAPI), LAPC4; format: cell-based, human; settings: LAPC4, 3 nM DHT, seven days; PP 100 nM, HH 100 nM, BiC 1 μM
Source text: as §4

LNCaP cells = test: Cell proliferation (DNA content, DAPI), LNCaP; format: cell-based, human; settings: 3 nM DHT, seven days, PP 100 nM, HH 100 nM, BiC 1 μM
Source text: as §4

LN-AR cells = test: Cell proliferation (DNA content, DAPI), LN-AR; format: cell-based, human; settings: seven days, PP 100 nM, HH 100 nM, BiC 1 μM
Source text: as §4

CC(O)(CS(=O)(=O)c1ccc(F)cc1)C(=O)Nc1ccc(C#N)c(C(F)(F)F)c1 (stereo not drawn) [BiC, bicalutamide]
Reduction of prostate weight (prostate glands of mice): 35%

C[C@]12CCC(=O)C[C@@H]1CC[C@@H]1[C@@H]2CC[C@]2(C)[C@@H](O)CC[C@@H]12 [DHT, dihydrotestosterone]
FKBP51 transcription (normalized to RPL19) [1]: 21.4
KLK3 transcription (normalized to RPL19) [1]: 1.97
MMP16 transcription (normalized to RPL19), androgen-repressed gene [1]: 0.71
Nkx3.1 transcription (normalized to RPL19) [1]: 1.08
RDC1 transcription (normalized to RPL19), androgen-repressed gene [1]: 0.63
TMPRSS2 transcription (normalized to RPL19) [1]: 1.13
FKBP51 transcription (normalized to RPL19) [2]: 2.15
KLK3 transcription (normalized to RPL19) [2]: 1.89
MMP16 transcription (normalized to RPL19), androgen-repressed gene [2]: 0.61
Nkx3.1 transcription (normalized to RPL19) [2]: 2.00
RDC1 transcription (normalized to RPL19), androgen-repressed gene [2]: 0.66
TMPRSS2 transcription (normalized to RPL19) [2]: 3.70

O=c1ccc2cc(O[C@@H]3O[C@H](CO)[C@@H](O)[C@H](O)[C@H]3O)c(O)cc2o1 [Esculin]
IC50 [3]: 831 nM
IC50 [4]: 62200 nM

COc1ccc2c3c([nH]c2c1)C(C)=NCC3 [Harmaline]
IC50 [4]: 1190 nM

COc1ccc2c(c1)[nH]c1c(C)nccc12 [Harmine]
IC50 [3]: 80 nM
IC50 [4]: 1560 nM

CC(C)(O)C(=O)Nc1ccc([N+](=O)[O-])c(C(F)(F)F)c1 [OH-F, hydroxy-flutamide, reference compound]
Mode of antagonism: effect on DHT dose-response of PSA-luciferase ([4]; LNCaP, DHT titrated, moderate dose of each inhibitor): DHT overcame the inhibitory effect; also recorded: consistent with a competitive antagonist

Cc1cc(/C=C/c2ccc3cc(N(C)C)ccc3[n+]2C)c(C)n1-c1ccccc1 [PP, pyrvinium pamoate]
Non-specific growth inhibition of control cells (HEK293 cells): Neither compound exhibited non-specific growth inhibition
Reduction of prostate weight (prostate glands of mice): did not produce a statistically significant effect; also recorded: did not significantly reduce prostate size
Inhibition of cell growth (LAPC4 cells): able to inhibit the growth of all four cell lines
Inhibition of cell growth (LNCaP cells): able to inhibit the growth of all four cell lines; also recorded: exhibited growth-inhibitory properties
Inhibition of androgen-independent cell growth (LN-AR cells): able to inhibit the growth of all four cell lines; also recorded: blocked growth

COc1cc2ccc(=O)oc2cc1O [Scopoletin]
IC50 [3]: 1380 nM
IC50 [4]: 604000 nM

Harman
IC50 [4]: 380 nM
